Like-named read-outs stand apart in the source and are kept apart here.
Assays:
MCF-7 cells = assay: cells; conditions: for inhibition at 1 µM / Emax / cytotoxicity at 10 µM: Homo sapiens, MCF7, 96 h; for inhibition at 1 µM: read-out: Antagonism at 1 µM (% of full antagonism); for Emax: read-out: Maximal Agonism (% of E2); for cytotoxicity at 10 µM: toxicity at 10 µmol/l, 100 = all cells dead; for Kill of MCF-7 cells (in words): highest investigated concentration (10 µM), Table 2; for Hormonal activity (in words): summary statement referring to Table 2
Experimental: For experiments involving hormone or anti-hormone treatment, the cells in exponential growth phase were precultivated in the absence of estradiol for one day. […] After the incubation period the medium was removed. The exposure to study drugs was started immediately by adding fresh medium with 5 % stripped serum. Half of the cells were grown with estradiol, half without estradiol. Study compounds (dissolved in ethanol in 0.01 M concentration and diluted with the growth medium as appropriate) were added. The final concentrations of the compounds were 1,10, and 100 nM, and 1 and 10 µM. The cells were incubated for four days.
This method allows evaluation of estrogenicity based on the ability of the compounds to stimulate the growth of the estrogen-dependent cells in the absence of estradiol. Estrogenicity was estimated by comparing the maximal growth stimulus (at any concentration) of study compound as per cent from growth stimulus by estradiol (100 % stimulus). […] At high concentrations molecules may also show toxicity. Toxicity was estimated as the fraction of dead cells (i.e. 100 % means that all cells have died during the exposure).

immature female rats = assay: 3 day uterotropic assay in immature female rats (given alone and with estradiol); assay type: in vivo; conditions: 3 days, immature female rats
Experimental: The values are given at two dose levels, low i.e. 3―5 mg/kg and high i.e. 10―50 mg/kg. Estrogenic activity can be estimated also after a 4 weeks' treatment of ovariectomized rats based on the uterine size.

[1] = read-out: Maximal Cell Kill (% fraction of dead cells), With estradiol (E2)
[2] = read-out: Maximal Cell Kill (% fraction of dead cells), Without estradiol (E2)

| SMILES | inhibition at 1 µM (MCF-7 cells) | Emax (MCF-7 cells) | cytotoxicity at 10 µM (MCF-7 cells; [1]) | cytotoxicity at 10 µM (MCF-7 cells; [2]) | Estrogenic and antiestrogenic action (in words) (MCF-7 cells; summary statement referring to Tables 2, 3 and 4) | Kill of MCF-7 cells (in words) (MCF-7 cells) | Hormonal activity (in words) (MCF-7 cells) | Estrogen antagonism (% inhibition of estradiol) Given with estradiol (immature female rats; dose 3–5 mg/kg) | Uterotropic effect (% of estradiol) Given without estradiol (immature female rats; dose 3–5 mg/kg) | Estrogen antagonism (% inhibition of estradiol) Given with estradiol (immature female rats; dose 10–50 mg/kg) | Uterotropic effect (% of estradiol) Given without estradiol (immature female rats; dose 10–50 mg/kg) |
| --- | --- | --- | --- | --- | --- | --- | --- | --- | --- | --- | --- |
| CN(C)CCOc1ccc(/C(=C(/CCCl)c2ccc(Cl)cc2)c2ccccc2)cc1 [No. 23, (Z)-(2-{4-[4-Chloro-2-(4-chlorophenyl)-1-phenylbut-1-enyl]phenoxy}ethyl)-dimethylamine] | 5% | 14% | 93% | 89% | – | – | – | – | – | – | – |
| CN(C)CCOc1ccc(/C(=C(\CCCl)c2ccc(Cl)cc2)c2ccccc2)cc1 [No. 24, (E)-(2-{4-[4-Chloro-2-(4-chlorophenyl)-1-phenylbut-1-enyl]phenoxy}ethyl)-dimethylamine] | 4% | 46% | 98% | 89% | – | – | – | – | – | – | – |
| CN(C)CCOc1ccc(/C(=C(/CCCl)c2ccc(F)cc2)c2ccccc2)cc1 [No. 25, (Z)-(2-{4-[4-Chloro-2-(4-fluorophenyl)-1-phenylbut-1-enyl]phenoxy}ethyl)-dimethylamine] | 6% | 17% | 27% | 42% | weak estrogenic and no antiestrogenic action | – | – | – | – | – | – |
| COc1ccc(/C(=C(\CCCl)c2ccc(Cl)cc2)c2ccc(OCCN(C)C)cc2)cc1 [No. 26, (Z)-(2-{4-[4-Chloro-2-(4-chlorophenyl)-1-(4-methoxyphenyl)but-1-enyl]phenoxy}-ethyl)dimethylamine] | 11% | 0% | 98% | 97% | – | kill MCF-7 cells (human breast cancer cells) effectively | weak hormonal activity | – | – | – | – |
| COc1ccc(/C(=C(/CCCl)c2ccc(Cl)cc2)c2ccc(OCCN(C)C)cc2)cc1 [No. 27, (E)-(2-{4-[4-Chloro-2-(4-chlorophenyl)-1-(4-methoxyphenyl)but-1-enyl]phenoxy}-ethyl)dimethylamine] | 5% | 0% | 100% | 99% | – | kill MCF-7 cells (human breast cancer cells) effectively | weak hormonal activity | – | – | – | – |
| OCCOc1ccc(/C(=C(/CCCl)c2ccccc2)c2cccc(O)c2)cc1 [No. 34, (E)-3-{4-Chloro-1-[4-(2-hydroxyethoxy)phenyl]-2-phenyl-but-1-enyl}-phenol] | 0% | 0% | 0% | 0% | – | – | – | – | – | – | – |
| OCCCOc1ccc(/C(=C(/CCCl)c2ccccc2)c2ccccc2)cc1 [No. 35, (Z)-3-[4-(4-Chloro-1,2-diphenylbut-1-enyl)phenoxy]propan-1-ol] | 14% | – | 50% | 50% | – | – | – | 35 % inhibition of estradiol | 43 % of estradiol | 32 % inhibition of estradiol | 66 % of estradiol |
| COc1ccc(/C(=C(\CCCl)c2ccc(Cl)cc2)c2ccc(OCCO)cc2)cc1 [No. 37, (Z)-2-{4-[4-Chloro-2-(4-chlorophenyl)-1-(4-methoxyphenyl)but-1-enyl]-phenoxy} ethanol] | 0% | 4% | 41% | 39% | – | – | – | – | – | – | – |
| OCCOc1ccc(/C(=C(/CCCl)c2ccc(O)cc2)c2ccccc2)cc1 [No. 42, (Z)-4-{1-(2-Chloroethyl)-2-[4-(2-hydroxyethoxy)phenyl]-2-phenylvinyl}phenol] | 13% | 9% | 54% | 23% | – | – | – | – | – | – | – |
| OCCOc1ccc(/C(=C(\CCCl)c2ccc(O)cc2)c2ccccc2)cc1 [No. 43, (E)-4-{1-(2-Chloroethyl)-2-[4-(2-hydroxyethoxy)phenyl]-2-phenylvinyl}phenol] | 6% | 78% | 22% | 80% | – | – | – | – | – | – | – |
| CC/C(=C(\c1ccccc1)c1ccc(OCCN(C)C)cc1)c1ccccc1 [Tamoxifen, reference compound] | 43% | 31% | 100% | 100% | – | – | – | 51 % inhibition of estradiol | 44 % of estradiol | 58 % inhibition of estradiol | 51 % of estradiol |

— patent EP1705169A2, “Triphenylalkene derivatives and their use as selective estrogen receptor modulators” (priority 1999, dated 2001)
